Measured values reported in publication PMC3275754, “Pregnenolone sulphate-independent inhibition of TRPM3 channels by progesterone” (Cell Calcium, 2012).

Legend:
Format in all cases: cell-based
[1] = target: T1, Transient Receptor Potential Melastatin 3 (TRPM3) (Homo sapiens, UniProt Q9HCF6); assay: Ca2+ measurement; […] inhibits PregS-evoked but not nifedipine-evoked TRPM3 activity; set-up: human TRPM3 expressed in HEK 293 cells
[2] = target: T1, Transient Receptor Potential Melastatin 3 (TRPM3); assay: Overlay binding assay with lysate of HEK […] cells expressing TRPM3-YFP; set-up: human TRPM3 tagged with YFP
[3] = target: T1, Transient Receptor Potential Melastatin 3 (TRPM3); assay: Ca2+ measurement and whole-cell patch-clamp inhibition; steroid overlay binding of TRPM3-YFP lysate; set-up: human TRPM3 expressed in HEK 293 cells; TRPM3-YFP for overlay

T1 sequence (Q9HCF6 whole entry): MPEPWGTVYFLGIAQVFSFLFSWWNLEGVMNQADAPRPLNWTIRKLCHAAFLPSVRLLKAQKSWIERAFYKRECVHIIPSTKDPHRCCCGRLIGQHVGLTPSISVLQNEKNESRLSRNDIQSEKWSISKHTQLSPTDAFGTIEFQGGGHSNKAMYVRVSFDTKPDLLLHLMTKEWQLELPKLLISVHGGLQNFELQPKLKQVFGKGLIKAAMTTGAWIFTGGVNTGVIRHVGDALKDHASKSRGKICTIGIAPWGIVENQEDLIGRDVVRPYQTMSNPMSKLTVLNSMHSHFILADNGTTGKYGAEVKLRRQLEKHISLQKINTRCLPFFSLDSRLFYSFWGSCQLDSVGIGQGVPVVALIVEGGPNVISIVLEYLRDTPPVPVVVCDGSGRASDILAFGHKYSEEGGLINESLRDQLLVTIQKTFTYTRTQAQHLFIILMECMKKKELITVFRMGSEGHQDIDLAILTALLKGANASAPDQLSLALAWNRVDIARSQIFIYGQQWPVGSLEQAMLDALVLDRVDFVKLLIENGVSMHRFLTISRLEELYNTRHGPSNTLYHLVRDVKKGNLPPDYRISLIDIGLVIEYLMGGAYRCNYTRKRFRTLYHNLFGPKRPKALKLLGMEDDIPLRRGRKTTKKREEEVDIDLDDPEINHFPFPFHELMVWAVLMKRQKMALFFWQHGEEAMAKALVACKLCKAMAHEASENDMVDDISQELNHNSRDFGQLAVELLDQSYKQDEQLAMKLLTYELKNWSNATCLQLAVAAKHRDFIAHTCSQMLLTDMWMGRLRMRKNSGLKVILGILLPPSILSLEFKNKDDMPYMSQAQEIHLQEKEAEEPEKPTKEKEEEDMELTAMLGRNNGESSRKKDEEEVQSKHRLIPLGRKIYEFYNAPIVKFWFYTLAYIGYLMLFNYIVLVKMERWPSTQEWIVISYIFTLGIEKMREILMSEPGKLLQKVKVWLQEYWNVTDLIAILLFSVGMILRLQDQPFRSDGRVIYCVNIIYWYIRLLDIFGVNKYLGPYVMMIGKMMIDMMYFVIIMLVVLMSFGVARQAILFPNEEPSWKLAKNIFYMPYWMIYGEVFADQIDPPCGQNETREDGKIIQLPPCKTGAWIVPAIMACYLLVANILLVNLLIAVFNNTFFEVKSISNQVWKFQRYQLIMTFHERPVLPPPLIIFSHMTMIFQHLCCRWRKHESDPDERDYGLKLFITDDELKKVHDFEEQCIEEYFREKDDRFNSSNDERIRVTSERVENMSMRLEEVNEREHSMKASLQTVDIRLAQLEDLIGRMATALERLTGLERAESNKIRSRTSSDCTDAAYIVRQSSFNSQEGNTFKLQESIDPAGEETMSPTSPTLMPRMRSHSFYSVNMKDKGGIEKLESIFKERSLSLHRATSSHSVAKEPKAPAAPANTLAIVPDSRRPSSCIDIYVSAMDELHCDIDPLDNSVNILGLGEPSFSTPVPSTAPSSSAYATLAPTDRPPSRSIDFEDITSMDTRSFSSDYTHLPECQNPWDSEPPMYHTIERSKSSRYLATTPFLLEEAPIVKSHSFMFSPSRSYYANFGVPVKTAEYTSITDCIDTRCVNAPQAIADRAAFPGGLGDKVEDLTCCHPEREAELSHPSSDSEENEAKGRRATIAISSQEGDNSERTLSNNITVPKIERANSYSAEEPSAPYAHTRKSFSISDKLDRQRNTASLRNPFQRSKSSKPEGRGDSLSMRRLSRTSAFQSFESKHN

CS(=O)(=O)c1ccc(C(=O)Nc2ccc(N3CCCC3)cc2)c(Cl)c1 [2-CMNPBC, 2-chloro-4-(methylsulphonyl)-N-[4-(1 pyrrolidinyl)phenyl]benzenecarboxamide]
Ca2+ measurement; 10 μM inhibits PregS-evoked but not nifedipine-evoked TRPM3 ac [1]: (2-CMNPBC, Fig. 9a), which also inhibited pregnenolone sulphate-evoked TRPM3 activity

CC(C)CCC[C@@H](C)[C@H]1CC[C@H]2[C@@H]3CC=C4C[C@@H](O)CC[C@]4(C)[C@H]3CC[C@]12C [cholesterol]
Overlay binding assay with lysate of HEK 293 cells expressing TRPM3-YFP [2]: TRPM3 bound to pregnenolone sulphate, progesterone, nifedipine, dihydrotestosterone and cholesterol

CC(=O)[C@H]1CC[C@H]2[C@@H]3CCC4=CC(=O)CC[C@]4(C)[C@H]3CC[C@]12C [prog, progesterone]
Ca2+ measurement and whole-cell patch-clamp inhibition; steroid overlay binding [3]: TRPM3 bound to pregnenolone sulphate, progesterone, nifedipine, dihydrotestosterone and cholesterol
